Measurements taken from ChEMBL document CHEMBL1132216, “Studies on the monoamine oxidase-B-catalyzed biotransformation of 4-azaaryl-1-methyl-1,2,3,6-tetrahydropyridine derivatives” (J Med Chem, 1999).

Columns and labels:
[1] = target: T1, Amine oxidase [flavin-containing] B (Bos taurus, UniProt P56560); assay: Ratio of Kcat versus Km was determined
T1 sequence (P56560 whole entry): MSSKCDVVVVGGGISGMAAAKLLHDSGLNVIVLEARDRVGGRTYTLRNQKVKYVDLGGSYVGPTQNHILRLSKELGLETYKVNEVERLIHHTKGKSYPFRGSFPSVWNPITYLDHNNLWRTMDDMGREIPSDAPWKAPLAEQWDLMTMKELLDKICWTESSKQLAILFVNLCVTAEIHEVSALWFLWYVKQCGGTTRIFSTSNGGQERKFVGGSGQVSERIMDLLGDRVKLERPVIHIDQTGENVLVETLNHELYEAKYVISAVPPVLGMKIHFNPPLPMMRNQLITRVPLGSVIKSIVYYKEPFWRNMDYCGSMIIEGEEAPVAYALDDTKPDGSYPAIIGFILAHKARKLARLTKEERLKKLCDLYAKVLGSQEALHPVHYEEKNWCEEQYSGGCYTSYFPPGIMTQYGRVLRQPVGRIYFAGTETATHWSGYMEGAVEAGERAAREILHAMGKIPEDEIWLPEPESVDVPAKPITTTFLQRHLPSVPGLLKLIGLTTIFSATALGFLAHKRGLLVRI

[2] = target: T1, Amine oxidase [flavin-containing] B; conditions: cattle
Description: Kcat against bovine liver Monoamine oxidase B

physchem = conditions: octanol/water
Description: Partition coefficient (logP)

[3] = target: T2, Monoamine oxidase B (MAO-B) (Bos taurus, UniProt P56560); assay: in vitro; conditions: cattle, bovine liver monoamine oxidase B
T2 sequence (P56560 whole entry): T1 sequence (P56560 whole entry)
Description: Km against bovine liver Monoamine oxidase B

| Compound | Ratio [1] | logP (physchem) | k cat [2] [s⁻¹] | Km [3] [µM] |
| --- | --- | --- | --- | --- |
| CN1CC=C(c2ccccn2)CC1 | 60 | 1.24 | 0.933 | 900 |
| CN1CC=C(c2cccnc2)CC1 | 35 | 1.44 | 1.12 | 1900 |
| CN1CC=C(n2nccn2)CC1 |  | 1.13 |  |  |
| CN1CC=C(c2ccc[nH]2)CC1 |  | 1.27 |  |  |
| CN1CC=C(c2cccn2C)CC1 |  | 1.73 |  |  |
| CN1CC=C(c2ccncc2)CC1 | 6 | 1.24 |  |  |
| CN1CC=C(n2ccnn2)CC1 |  | 1.13 |  |  |

Continued, in another order:

| Ratio [1] | logP (physchem) | Compound | k cat [2] [s⁻¹] | Km [3] [µM] |
| --- | --- | --- | --- | --- |
|  | 1.31 | CN1CC=C(n2ccnc2)CC1 |  |  |
| 850 | 2.85 | CN1CC=C(n2ncc3ccccc32)CC1 |  |  |
| 410 | 2.17 | CN1CC=C(n2cccc2)CC1 |  |  |
| 675 | 2.36 | CN1CC=C(n2nnc3ccccc32)CC1 |  |  |
| 3350 | 3.61 | CN1CC=C(n2ccc3ccccc32)CC1 |  |  |
| 220 | 2.54 | CN1CC=C(n2cnc3ccccc32)CC1 |  |  |
